Patent US12534452B2, “N-(1H-imidazol-2-yl)benzamide compound and pharmaceutical composition comprising the same as active ingredient” (KAINOS MEDICINE, INC., priority 2019, dated 2026)

Biological target: IRAK4 (Homo sapiens (Human), UniProt Q9NWZ3)
Assay: In vitro IRAK4 phosphorylation activity assay
Format: biochemical
Details: [γ-33P]-ATP, myelin basic protein substrate, 40 minutes at room temperature; categories
In short: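 Radiometric filter-binding assay, no compound–kinase preincubation; 8 mM MOPS pH 7.0, 0.2 mM EDTA, 10 mM Mg acetate, 0.33 mg/mL myelin basic protein substrate, [γ-33P]-ATP. Reaction 40 min at room temperature, stopped with phosphoric acid, scintillation counting; IC50 reported in categories.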

Chain of IRAK4 (Q9NWZ3 whole entry): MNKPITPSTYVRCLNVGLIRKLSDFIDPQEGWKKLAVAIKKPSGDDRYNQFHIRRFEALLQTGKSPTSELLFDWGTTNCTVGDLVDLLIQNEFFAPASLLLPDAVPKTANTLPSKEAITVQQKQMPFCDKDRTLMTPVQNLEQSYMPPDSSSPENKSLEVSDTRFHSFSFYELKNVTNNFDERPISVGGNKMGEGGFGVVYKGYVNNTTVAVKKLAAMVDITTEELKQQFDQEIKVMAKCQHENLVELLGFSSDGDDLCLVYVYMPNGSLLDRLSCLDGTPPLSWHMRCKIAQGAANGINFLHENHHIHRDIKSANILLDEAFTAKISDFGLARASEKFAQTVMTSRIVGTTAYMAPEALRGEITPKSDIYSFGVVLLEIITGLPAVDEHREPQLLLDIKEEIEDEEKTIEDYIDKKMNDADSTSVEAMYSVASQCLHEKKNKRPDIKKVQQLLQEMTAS

IC50	SMILES
< 50 nM	O=C(Nc1nc(CCCCCC[N+]2([O-])CCCCC2)cn1-c1ccccc1)c1cccc(-c2cn[nH]c2)c1 [Example 125, 1-(6-(2-(3-(1H-pyrazol-4-yl)benzamido)-1-phenyl-1H-imidazol-4-yl)hexyl)piperidine 1-oxide]
< 50 nM	O=C(Nc1nc(CCC(=O)N2CCCC(C(=O)O)C2)cn1-c1ccccc1)c1cccc(-c2cn[nH]c2)c1 [Example 36, (S)-1-(3-(2-(3-(1H-pyrazol-4-yl)benzamido)-1-phenyl-1H-imidazol-4-yl)propanoyl)piperidine-3-carboxylic acid]
< 50 nM	Cn1cc(-c2cccc(C(=O)Nc3nc(CCCC(=O)N4CCN(C5CC5)CC4)cn3-c3ccccc3)c2)cn1 [Example 149, N-(4-(4-(4-cyclopropylpiperazin-1-yl)-4-oxobutyl)-1-phenyl-1H-imidazol-2-yl)-3-(1-methyl-1H-pyrazol-4-yl)benzamide]
50 to 100 nM	CCOC(C)(C)n1cc(-c2cccc(C(=O)Nc3nc(CCCC(=O)NC4CC4)cn3-c3ccccc3)c2)cn1 [Example 73, N-(4-(4-(cyclopropylamino)-4-oxobutyl)-1-phenyl-1H-imidazol-2-yl)-3-(1-(2-ethoxypropan-2-yl)-1H-pyrazol-4-yl)benzamide]
< 50 nM	O=C(CCCc1cn(-c2ccccc2)c(NC(=O)c2cccc(-c3cn[nH]c3)c2)n1)Nc1ccccc1 [Example 52, N-(4-(4-oxo-4-(phenylamino)butyl)-1-phenyl-1H-imidazol-2-yl)-3-(1H-pyrazol-4-yl)benzamide]
< 50 nM	O=C(CCCc1cn(-c2ccccc2)c(NC(=O)c2cccc(-c3cn[nH]c3F)c2)n1)NC1CC1 [Example 229, N-(4-(4-(cyclopropylamino)-4-oxobutyl)-1-phenyl-1H-imidazol-2-yl)-3-(5-fluoro-1H-pyrazol-4-yl)benzamide]
50 to 100 nM	CCOC(C)n1cc(-c2cccc(C(=O)Nc3nc(CCCCCCN4CCCCC4)cn3-c3ccccc3)c2)cn1 (stereo not shown) [Example 138, 3-(1-(1-ethoxyethyl)-1H-pyrazol-4-yl)-N-(1-phenyl-4-(6-(piperidin-1-yl)hexyl)-1H-imidazol-2-yl)benzamide]
< 50 nM	COC[C@@H]1CCCN1C(=O)CCCc1cn(-c2ccccc2)c(NC(=O)c2cccc(-c3cn[nH]c3)c2)n1 [Example 55, (S)—N-(4-(4-(2-(methoxymethyl)pyrrolidin-1-yl)-4-oxobutyl)-1-phenyl-1H-imidazol-2-yl)-3-(1H-pyrazol-4-yl)benzamide]
> 100 nM	CN1CCN(C(=O)CCCc2cn(-c3ccccc3)c(NC(=O)c3cccc(-c4ccc5scnc5c4)c3)n2)CC1 [Example 284, 3-(benzo[d]thiazol-5-yl)-N-(4-(4-(4-methylpiperazin-1-yl)-4-oxobutyl)-1-phenyl-1H-imidazol-2-yl)benzamide]
< 50 nM	O=C(CCCc1cn(-c2ccccc2)c(NC(=O)c2cccc(-c3cccc4[nH]ncc34)c2)n1)NC1CC1 [Example 249, N-(4-(4-(cyclopropylamino)-4-oxobutyl)-1-phenyl-1H-imidazol-2-yl)-3-(1H-indazol-4-yl)benzamide]
< 50 nM	CNC(=O)CCc1cn(-c2ccccc2)c(NC(=O)c2cccc(-c3cn[nH]c3)c2)n1 [Example 33, N-(4-(3-(methylamino)-3-oxopropyl)-1-phenyl-1H-imidazol-2-yl)-3-(1H-pyrazol-4-yl)benzamide]
> 100 nM	Cn1cc(-c2cccc(C(=O)Nc3nc(CCCC(=O)NCCN4CCOCC4)cn3-c3ccccc3)c2)cn1 [Example 184, 3-(1-methyl-1H-pyrazol-4-yl)-N-(4-(4-((2-morpholinoethyl)amino)-4-oxobutyl)-1-phenyl-1H-imidazol-2-yl)benzamide]
50 to 100 nM	COC[C@@H]1CCCN1NC(=O)CCc1cn(-c2ccccc2)c(NC(=O)c2cccc(-c3cn[nH]c3)c2)n1 [Example 13, (S)—N-(4-(3-((2-(methoxymethyl)pyrrolidin-1-yl)amino)-3-oxopropyl)-1-phenyl-1H-imidazol-2-yl)-3-(1H-pyrazol-4-yl)benzamide]
< 50 nM	COC(=O)CCCCc1cn(-c2ccccc2)c(NC(=O)c2cccc(-c3cn[nH]c3)c2)n1 [Example 77, methyl 5-(2-(3-(1H-pyrazol-4-yl)benzamido)-1-phenyl-1H-imidazol-4-yl)pentanoate]
< 50 nM	CN1CCN(C(=O)CCCc2cn(-c3ccc(F)cc3)c(NC(=O)c3cccc(-c4cnn(C)c4)c3)n2)CC1 [Example 299, N-(1-(4-fluorophenyl)-4-(4-(4-methylpiperazin-1-yl)-4-oxobutyl)-1H-imidazol-2-yl)-3-(1-methyl-1H-pyrazol-4-yl)benzamide]
> 100 nM	O=C(CCc1cn(-c2ccccc2)c(NC(=O)c2cncc(-c3cn[nH]c3)c2)n1)Nc1ccccc1 [Example 4, N-(4-(3-oxo-3-(phenylamino)propyl)-1-phenyl-1H-imidazol-2-yl)-5-(1H-pyrazol-4-yl)nicotinamide]
< 50 nM	O=C(O)CCCCCc1cn(-c2ccccc2)c(NC(=O)c2cccc(-c3cn[nH]c3)c2)n1 [Example 92, 6-(2-(3-(1H-pyrazol-4-yl)benzamido)-1-phenyl-1H-imidazol-4-yl)hexanoic acid]

IC50	SMILES
< 50 nM	Cn1cc(-c2cccc(C(=O)Nc3nc(CCCC(=O)Nc4ccn(C)n4)cn3-c3ccccc3)c2)cn1 [Example 190, N-(4-(4-((1-methyl-1H-pyrazol-3-yl)amino)-4-oxobutyl)-1-phenyl-1H-imidazol-2-yl)-3-(1-methyl-1H-pyrazol-4-yl)benzamide]
< 50 nM	O=C(Nc1nc(CCCCCCN2CCOCC2)cn1-c1ccccc1)c1cccc(-c2cn[nH]c2)c1 [Example 123, N-(4-(6-morpholinohexyl)-1-phenyl-1H-imidazol-2-yl)-3-(1H-pyrazol-4-yl)benzamide]
50 to 100 nM	CNC(=O)Cc1cn(-c2ccccc2)c(NC(=O)c2cccc(-c3ccc4[nH]ncc4c3)c2)n1 [Example 243, 3-(1H-indazol-5-yl)-N-(4-(2-(methylamino)-2-oxoethyl)-1-phenyl-1H-imidazol-2-yl)benzamide]
> 100 nM	CNC(=O)Cc1cn(-c2ccccc2)c(NC(=O)c2ccc3[nH]ncc3c2)n1 [Example 49, N-(4-(2-(methylamino)-2-oxoethyl)-1-phenyl-1H-imidazol-2-yl)-1H-indazole-5-carboxamide]
< 50 nM	CN1CCN(C(=O)CCCCCc2cn(-c3ccccc3)c(NC(=O)c3cccc(-c4ccc5ncsc5c4)c3)n2)CC1 [Example 285, 3-(benzo[d]thiazol-6-yl)-N-(4-(6-(4-methylpiperazin-1-yl)-6-oxohexyl)-1-phenyl-1H-imidazol-2-yl)benzamide]
< 50 nM	C[C@H]1CCCCN1C(=O)CCCCCc1cn(-c2ccccc2)c(NC(=O)c2cccc(-c3cn[nH]c3)c2)n1 [Example 95, (S)—N-(4-(6-(2-methylpiperidin-1-yl)-6-oxohexyl)-1-phenyl-1H-imidazol-2-yl)-3-(1H-pyrazol-4-yl)benzamide]
> 100 nM	O=C(CCc1cn(-c2ccccc2)c(NC(=O)c2cccc(-c3cnoc3)c2)n1)Nc1ccccc1 [Example 5, 3-(isoxazol-4-yl)-N-(4-(3-oxo-3-(phenylamino)propyl)-1-phenyl-1H-imidazol-2-yl)benzamide]
< 50 nM	CN(C)C1CCN(C(=O)CCCc2cn(-c3ccccc3)c(NC(=O)c3cccc(-c4ccc5ncsc5c4)c3)n2)CC1 [Example 281, 3-(benzo[d]thiazol-6-yl)-N-(4-(4-(4-(dimethylamino)piperidin-1-yl)-4-oxobutyl)-1-phenyl-1H-imidazol-2-yl)benzamide]
< 50 nM	Cn1cc(-c2cccc(C(=O)Nc3nc(CCCCCCNC(=O)C4CC4)cn3-c3ccccc3)c2)cn1 [Example 228, N-(4-(6-(cyclopropanecarboxamido)hexyl)-1-phenyl-1H-imidazol-2-yl)-3-(1-methyl-1H-pyrazol-4-yl)benzamide]
50 to 100 nM	C[C@H]1CCCCN1C(=O)CCc1cn(-c2ccccc2)c(NC(=O)c2cccc(-c3cn[nH]c3)c2)n1 [Example 31, (S)—N-(4-(3-(2-methylpiperidin-1-yl)-3-oxopropyl)-1-phenyl-1H-imidazol-2-yl)-3-(1H-pyrazol-4-yl)benzamide]
< 50 nM	Cn1cc(-c2cccc(C(=O)Nc3nc(CCCCCCN4CCCC4)cn3-c3ccccc3)c2)cn1 [Example 222, 3-(1-methyl-1H-pyrazol-4-yl)-N-(1-phenyl-4-(6-(pyrrolidin-1-yl)hexyl)-1H-imidazol-2-yl)benzamide]
< 50 nM	CNC(=O)CCCc1cn(-c2ccccc2)c(NC(=O)c2cccc(-c3cn[nH]c3)c2)n1 [Example 60, N-(4-(4-(methylamino)-4-oxobutyl)-1-phenyl-1H-imidazol-2-yl)-3-(1H-pyrazol-4-yl)benzamide]
< 50 nM	O=C(O)CCCCc1cn(-c2ccccc2)c(NC(=O)c2cccc(-c3cn[nH]c3)c2)n1 [Example 78, 5-(2-(3-(1H-pyrazol-4-yl)benzamido)-1-phenyl-1H-imidazol-4-yl)pentanoic acid]
< 50 nM	Cn1cc(-c2cccc(C(=O)Nc3nc(CCCC(=O)N4CCCC(F)(F)C4)cn3-c3ccccc3)c2)cn1 [Example 175, N-(4-(4-(3,3-difluoropiperidin-1-yl)-4-oxobutyl)-1-phenyl-1H-imidazol-2-yl)-3-(1-methyl-1H-pyrazol-4-yl)benzamide]
< 50 nM	COC[C@@H]1CCCN1C(=O)CCCCCc1cn(-c2ccccc2)c(NC(=O)c2cccc(-c3cn[nH]c3)c2)n1 [Example 100, (S)—N-(4-(6-(2-(methoxymethyl)pyrrolidin-1-yl)-6-oxohexyl)-1-phenyl-1H-imidazol-2-yl)-3-(1H-pyrazol-4-yl)benzamide]
< 50 nM	O=C(CCc1cn(-c2ccccc2)c(NC(=O)c2cccc(-c3cn[nH]c3)c2)n1)Nc1ccccc1 [Example 6, N-(4-(3-oxo-3-(phenylamino)propyl)-1-phenyl-1H-imidazol-2-yl)-3-(1H-pyrazol-4-yl)benzamide]
< 50 nM	O=C(CCCCCc1cn(-c2ccccc2)c(NC(=O)c2cccc(-c3ccc4ncsc4c3)c2)n1)NC1CC1 [Example 286, 3-(benzo[d]thiazol-6-yl)-N-(4-(6-(cyclopropylamino)-6-oxohexyl)-1-phenyl-1H-imidazol-2-yl)benzamide]
